Results taken from ChEMBL document CHEMBL5500393, “Discovery and Optimization of Novel SaFabI Inhibitors as Specific Therapeutic Agents for MRSA Infection” (J Med Chem, 2024).

Legend:
Staphylococcus aureus [1] = experiment: Antimicrobial activity against […] Staphylococcus aureus USA300 measured after 24 hrs by CLSI protocol based microdilution method; type: functional
Escherichia coli = experiment: Antimicrobial activity against Escherichia coli ATCC25922 measured after 24 hrs by CLSI protocol based microdilution method; type: functional
[2] = molecular target: T1, Enoyl-[acyl-carrier-protein] reductase [NADPH] FabI (Staphylococcus aureus) (UniProt Q6GI75); experiment: Inhibition of N-terminal his 6 tagged Staphylococcus aureus Fabi (1 to […] residues) expressed in Escherichia coli BL21 at 1 uM incubated for 30 mins in presence of NADPH by fluorescence based microplate reader analysis relative to control
T1 sequence (whole entry): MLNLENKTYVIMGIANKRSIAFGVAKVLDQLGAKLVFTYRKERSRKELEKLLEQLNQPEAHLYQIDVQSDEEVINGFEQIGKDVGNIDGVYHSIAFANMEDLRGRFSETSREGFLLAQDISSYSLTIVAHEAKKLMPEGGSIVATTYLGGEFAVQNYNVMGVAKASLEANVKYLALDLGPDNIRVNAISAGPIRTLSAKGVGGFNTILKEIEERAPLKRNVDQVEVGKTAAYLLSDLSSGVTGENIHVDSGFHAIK

Enterococcus faecalis = experiment: Antimicrobial activity against Enterococcus faecalis ATCC29212 measured after 24 hrs by CLSI protocol based microdilution method; type: functional
Staphylococcus aureus [3] = experiment: Antimicrobial activity against methicillin-susceptible Staphylococcus aureus ATCC25923 measured after 24 hrs by CLSI protocol based microdilution method; type: functional
Staphylococcus aureus [4] = experiment: Antimicrobial activity against […] Staphylococcus aureus NRS271 measured after 24 hrs by CLSI protocol based microdilution method; type: functional
Enterococcus faecium = experiment: Antimicrobial activity against Enterococcus faecium ATCC19434 measured after 24 hrs by CLSI protocol based microdilution method; type: functional
Staphylococcus aureus [5] = experiment: Antimicrobial activity against […] Staphylococcus aureus ATCC43300 measured after 24 hrs by CLSI protocol based microdilution method; type: functional
Candida albicans = experiment: Antimicrobial activity against Candida albicans SC5314 measured after 48 hrs by CLSI protocol based microdilution method; type: functional
Acinetobacter baumannii = experiment: Antimicrobial activity against Acinetobacter baumannii ATCC19606 measured after 24 hrs by CLSI protocol based microdilution method; type: functional
Pseudomonas aeruginosa = experiment: Antimicrobial activity against Pseudomonas aeruginosa PAO1 measured after 24 hrs by CLSI protocol based microdilution method; type: functional
[6] = molecular target: T1, Enoyl-[acyl-carrier-protein] reductase [NADPH] FabI (Staphylococcus aureus); experiment: Inhibition of N-terminal his 6 tagged Staphylococcus aureus Fabi (1 to […] residues) expressed in Escherichia coli BL21 at 10 uM incubated for 30 mins in presence of NADPH by fluorescence based microplate reader analysis relative to control
Staphylococcus aureus [7] = experiment: Antimicrobial activity against methicillin-susceptible Staphylococcus aureus ATCC29213 measured after 24 hrs by CLSI protocol based microdilution method; type: functional
Staphylococcus aureus [8] = experiment: Antimicrobial activity against […] Staphylococcus aureus ATCC33591 measured after 24 hrs by CLSI protocol based microdilution method; type: functional

Row | Structure (SMILES) | MIC (Staphylococcus aureus [1]) [µg/mL] | MIC (Escherichia coli) [µg/mL] | inhibition [2] [%] | MIC (Enterococcus faecalis) [µg/mL] | MIC (Staphylococcus aureus [3]) [µg/mL] | MIC (Staphylococcus aureus [4]) [µg/mL] | MIC (Enterococcus faecium) [µg/mL] | MIC (Staphylococcus aureus [5]) [µg/mL] | MIC (Candida albicans) [µg/mL] | MIC (Acinetobacter baumannii) [µg/mL] | MIC (Pseudomonas aeruginosa) [µg/mL] | inhibition [6] [%] | MIC (Staphylococcus aureus [7]) [µg/mL] | MIC (Staphylococcus aureus [8]) [µg/mL]
1 | Cn1c(C2CC(=O)N(Cc3ccccc3)C2)nc2ccccc21 (centres undefined) | > 32 | > 32 | 4.6 | > 32 | > 32 | > 32 | > 32 | > 32 | > 32 | > 32 | > 32 | 27.9 | > 32 | > 32
2 | Cn1c(C2CC(=O)N(C3CCCCC3)C2)nc2ccccc21 (centres undefined) | > 32 | > 32 | 3.2 | > 32 | > 32 | > 32 | > 32 | > 32 | > 32 | > 32 | > 32 | 43.7 | > 32 | > 32
3 | Cc1cccc(N2CCC(c3nc4ccccc4n3C)CC2)c1C | > 32 | > 32 | 2.8 | > 32 | > 32 | > 32 | > 32 | > 32 | > 32 | > 32 | > 32 | 2 | > 32 | > 32
4 | Cc1cccc(N2CCC(c3nc4ccccc4n3C)C2)c1C (centres undefined) | > 32 | > 32 | 5.4 | > 32 | > 32 | > 32 | > 32 | > 32 | > 32 | > 32 | > 32 | 6.2 | > 32 | > 32
5 | Cn1c(C2CC(=O)N(c3ccc(F)c(F)c3)C2)nc2ccccc21 (centres undefined) | > 32 | > 32 | 2.7 | > 32 | > 32 | > 32 | > 32 | > 32 | > 32 | > 32 | > 32 | 40.1 | > 32 | > 32
6 | Cn1c(CCC(=O)NCc2ccccc2)nc2ccccc21 | > 32 | > 32 | 7.9 | > 32 | > 32 | > 32 | > 32 | > 32 | > 32 | > 32 | > 32 | 6.1 | > 32 | > 32
7 | Cn1c(C2CC(=O)N(CCc3ccccc3)C2)nc2ccccc21 (centres undefined) | > 32 | > 32 | 5.8 | > 32 | > 32 | > 32 | > 32 | > 32 | > 32 | > 32 | > 32 | 3.9 | > 32 | > 32
8 | Cc1cccc(NC(=O)CCNC(=O)CCc2nc3ccccc3n2C)c1C | > 32 | > 32 | 6.9 | > 32 | > 32 | > 32 | > 32 | > 32 | > 32 | > 32 | > 32 | 33.2 | > 32 | > 32
9 | Cc1cccc(NC(=O)c2cccc(NC(=O)c3nc4ccccc4n3C)c2)c1C | > 32 | > 32 | 3.7 | > 32 | > 32 | > 32 | > 32 | > 32 | > 32 | > 32 | > 32 | 5 | > 32 | > 32
10 | Cc1cccc(C(=O)NCCNC(=O)CCc2nc3ccccc3n2C)c1C | > 32 | > 32 | 5.2 | > 32 | > 32 | > 32 | > 32 | > 32 | > 32 | > 32 | > 32 | 25.6 | > 32 | > 32
11 | COc1ccc(N2CC(c3nc4ccccc4n3C)CC2=O)cc1OC (centres undefined) | > 32 | > 32 | 1.6 | > 32 | > 32 | > 32 | > 32 | > 32 | > 32 | > 32 | > 32 | 22.5 | > 32 | > 32
12 | Cn1c(C2CC(=O)N(c3ccc4ncsc4c3)C2)nc2ccccc21 (centres undefined) | > 32 | > 32 | 4.1 | > 32 | > 32 | > 32 | > 32 | > 32 | > 32 | > 32 | > 32 | 43.4 | > 32 | > 32
13 | CC(=O)c1ccc(N2CC(c3nc4ccccc4n3C)CC2=O)cc1 (centres undefined) | > 32 | > 32 | 2.8 | > 32 | > 32 | > 32 | > 32 | > 32 | > 32 | > 32 | > 32 | 10.1 | > 32 | > 32
14 | Cn1c(CCC(=O)Nc2ccccc2)nc2ccccc21 | > 32 | > 32 | 7.7 | > 32 | > 32 | > 32 | > 32 | > 32 | > 32 | > 32 | > 32 | 7.8 | > 32 | > 32
15 | Cn1c(C2CC(=O)N(c3ccc(N4CCOCC4)cc3)C2)nc2ccccc21 (centres undefined) | > 32 | > 32 | 8.2 | > 32 | > 32 | > 32 | > 32 | > 32 | > 32 | > 32 | > 32 | 7.7 | > 32 | > 32
16 | Cn1c(C2CC(=O)N(c3cccc(-c4ccccc4)c3)C2)nc2ccccc21 (centres undefined) | > 32 | > 32 | 3.5 | > 32 | > 32 | > 32 | > 32 | > 32 | > 32 | > 32 | > 32 | 10.1 | > 32 | > 32
17 | Cn1c(C2CC(=O)N(c3ccc(Br)c(Br)c3)C2)nc2ccccc21 (centres undefined) | > 32 | > 32 | 4.8 | > 32 | > 32 | > 32 | > 32 | > 32 | > 32 | > 32 | > 32 | 45.4 | > 32 | > 32
18 | Cn1c(C(=O)Nc2cccc(C(=O)NCc3ccccc3)c2)nc2ccccc21 | > 32 | > 32 | 6.8 | > 32 | > 32 | > 32 | > 32 | > 32 | > 32 | > 32 | > 32 | 4 | > 32 | > 32
19 | Cc1c(N)cccc1N1CC(c2nc3ccccc3n2C)CC1=O (centres undefined) | > 32 | > 32 | 6.1 | > 32 | > 32 | > 32 | > 32 | > 32 | > 32 | > 32 | > 32 | 50.2 | > 32 | > 32
20 | Cn1c(C2CC(=O)N(c3ccc4ccccc4c3)C2)nc2ccccc21 (centres undefined) | > 32 | > 32 | 2.8 | > 32 | > 32 | > 32 | > 32 | > 32 | > 32 | > 32 | > 32 | 51.7 | > 32 | > 32
21 | Cn1c(C2CC(=O)N(c3cccc(Br)c3OCC(F)(F)F)C2)nc2ccccc21 (centres undefined) | > 32 | > 32 | 2.1 | > 32 | > 32 | > 32 | > 32 | > 32 | > 32 | > 32 | > 32 | 18.8 | > 32 | > 32
